# Patent publication US6881420B2 (Teva Pharmaceutical Industries Ltd., priority 2000, dated 2005)
# Assays:
# [1] = Relative oral, non-gastric retention bioavailability of irinotecan and SN-38 derived from literature; assay type: in vivo; details: human, blood (bloodstream); oral non-gastric retention relative to intravenous; read-out: Calculated Relative Bioavailabilty of Lactone [formula]
# Excerpt: Quantity “A” is the total area under the bloodstream concentration curve over time.
# ATotal=ALactone+ACarboxylate is the sum of the areas under the curve of lactone and carboxylate forms of the species.
# [2] = Systemic delivery of irinotecan and SN-38 after GRDS tablet versus i.v. in the beagle dog; details: irinotecan in gastric retention dosage form, oral
# Description: A plot of plasma concentration against time allows calculation of the area under the curves and the relative bioavailability of the various forms of the drug.
# Prior to the study, an adequate amount (5-10 ml) of whole blood is drawn from each dog. The blood is used to prepare the standard calibration reference curve. At the study, the foreleg (right or left, as deemed appropriate by the animal handler), is shaved using an electric shaver, and the area cleansed with a chlorhexidine swab. A permanent in-dwelling polyethylene catheter is inserted using a 23 gauge needle in the cephalic vein in the foreleg of each dog and taped in place to allow for periodic blood sampling over 12 hours. […]
# At each time point, 2.0 ml blood is removed by syringe and then placed into a pre-labeled heparinized test tube. […] The concentration of the components are measured using literature HPLC methods.
# The dogs are fasted overnight for a period of at least 12 hours at which time they receive a single mixed meal of solid food and liquid nutrients. 250 grams of bite-size commercial dog chow (Bonzo Feed®) are measured and placed in a feeding dish. […] The food remaining in the dish is measured and the difference from the original 250 grams is recorded as the amount of food consumed. […]
# Two hours after the meal, the dog is dosed with the test tablet. […] The methanol samples are analyzed by HPLC. […]
# [3] = cited from earlier work
# [4] = biological target: T1, topoisomerase I (Homo sapiens, UniProt P11387); details: cited from earlier work
# T1 sequence (P11387 1-765): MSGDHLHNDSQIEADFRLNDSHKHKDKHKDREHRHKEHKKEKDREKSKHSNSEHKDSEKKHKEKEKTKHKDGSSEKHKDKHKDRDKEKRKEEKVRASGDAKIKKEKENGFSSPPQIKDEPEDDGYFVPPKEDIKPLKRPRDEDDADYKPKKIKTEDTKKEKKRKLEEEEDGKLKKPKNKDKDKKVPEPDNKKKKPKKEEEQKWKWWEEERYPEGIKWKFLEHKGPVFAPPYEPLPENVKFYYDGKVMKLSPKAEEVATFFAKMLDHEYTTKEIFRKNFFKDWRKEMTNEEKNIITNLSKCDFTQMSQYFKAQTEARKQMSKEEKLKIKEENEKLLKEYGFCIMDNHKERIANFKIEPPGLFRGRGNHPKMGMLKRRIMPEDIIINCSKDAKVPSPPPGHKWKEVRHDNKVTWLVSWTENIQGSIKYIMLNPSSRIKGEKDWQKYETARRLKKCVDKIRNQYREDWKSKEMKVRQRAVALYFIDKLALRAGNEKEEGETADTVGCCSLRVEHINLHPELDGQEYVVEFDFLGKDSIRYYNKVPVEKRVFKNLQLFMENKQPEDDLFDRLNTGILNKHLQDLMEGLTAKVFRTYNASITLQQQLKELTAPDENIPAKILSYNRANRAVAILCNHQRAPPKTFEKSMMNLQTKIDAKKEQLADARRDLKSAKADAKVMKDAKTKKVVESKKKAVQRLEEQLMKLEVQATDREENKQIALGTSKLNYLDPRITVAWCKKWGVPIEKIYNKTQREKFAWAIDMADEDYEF
SMILES,bioavailability [1],Ratio absorbed in the lactone form [formula] [2],"Overall delivery to the bloodstream [formula], gastric retention relative to intravenous ([2]; vs IV)","[formula] ratio of lactone AUC to total AUC, intravenous ([3]; irinotecan given intravenously)","[formula] overall delivery to the bloodstream, total AUC oral relative to intravenous ([3]; irinotecan given orally, conventional non-gastric retention, vs IV, lactone + carboxylate)","[formula] ratio absorbed in the lactone form (lactone AUC / total AUC), oral ([3]; irinotecan given orally, conventional non-gastric retention)",Potency as inhibitor of topoisomerase I relative to irinotecan [4]
CCc1c2c(nc3ccc(OC(=O)N4CCC(N5CCCCC5)CC4)cc13)-c1cc3c(c(=O)n1C2)COC(=O)[C@]3(O)CC [Irinotecan],12%,,,,,,
"CCc1c2c(nc3ccc(O)cc13)-c1cc3c(c(=O)n1C2)COC(=O)[C@]3(O)CC [SN-38, 7-ethyl-10-hydroxycamptothecin]",,0.9,0.4,0.50,0.16,0.73,approximately a thousand times more potent
